In test [1] the target is T1, Alpha-2B adrenergic receptor (Homo sapiens, UniProt P18089).
T1 sequence (P18089 whole entry): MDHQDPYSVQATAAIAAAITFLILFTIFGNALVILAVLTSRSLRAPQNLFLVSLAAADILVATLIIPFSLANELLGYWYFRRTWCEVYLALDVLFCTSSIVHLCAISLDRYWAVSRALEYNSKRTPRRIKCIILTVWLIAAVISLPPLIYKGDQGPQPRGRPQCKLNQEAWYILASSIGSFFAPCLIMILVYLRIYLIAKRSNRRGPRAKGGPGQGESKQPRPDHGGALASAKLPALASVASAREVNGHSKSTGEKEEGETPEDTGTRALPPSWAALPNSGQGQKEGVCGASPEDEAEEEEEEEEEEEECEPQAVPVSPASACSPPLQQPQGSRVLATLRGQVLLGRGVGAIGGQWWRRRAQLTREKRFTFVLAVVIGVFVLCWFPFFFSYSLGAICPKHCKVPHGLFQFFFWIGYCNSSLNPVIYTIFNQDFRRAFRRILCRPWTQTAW
The experiment in a line: Binding affinity against Alpha-2B adrenergic receptor.

For test [2], the target named is T2, Alpha-1B adrenergic receptor (Homo sapiens, UniProt P35368).
T2 sequence (P35368 whole entry): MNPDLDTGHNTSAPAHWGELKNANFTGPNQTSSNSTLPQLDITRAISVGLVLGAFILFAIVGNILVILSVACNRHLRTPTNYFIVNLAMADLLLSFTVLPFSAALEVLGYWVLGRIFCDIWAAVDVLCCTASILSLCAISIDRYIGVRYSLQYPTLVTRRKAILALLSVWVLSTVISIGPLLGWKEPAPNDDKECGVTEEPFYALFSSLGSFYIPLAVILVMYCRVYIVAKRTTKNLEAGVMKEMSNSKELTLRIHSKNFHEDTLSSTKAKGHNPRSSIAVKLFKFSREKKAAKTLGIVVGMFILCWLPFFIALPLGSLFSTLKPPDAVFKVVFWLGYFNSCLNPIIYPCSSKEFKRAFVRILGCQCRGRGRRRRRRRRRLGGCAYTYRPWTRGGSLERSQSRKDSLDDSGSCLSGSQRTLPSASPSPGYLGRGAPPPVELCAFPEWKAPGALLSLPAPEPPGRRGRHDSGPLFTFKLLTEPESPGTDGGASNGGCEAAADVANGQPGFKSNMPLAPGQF
As to the kind of experiment: Binding affinity against Adrenogenic Alpha-1B receptor.

The species entered for test [3] is Rattus norvegicus. As to the kind of experiment: Tested for maximum response in depolarization of isolated rat vagus nerve measured at dose 1 uM. The format is functional.
Test [4] addresses T3, 5-hydroxytryptamine receptor 4 (Homo sapiens, UniProt Q13639). The experiment in a line: Binding affinity against 5-hydroxytryptamine 4 receptor.
Test [5] has as its target Beta-1 adrenergic receptor (Homo sapiens, UniProt P08588). As to the kind of experiment: Binding affinity against Beta-1 adrenergic receptor.
Test [6] addresses 5-hydroxytryptamine receptor 2A (Homo sapiens, UniProt P28223). The experiment in a line: Binding affinity against 5-Hydroxytryptamine 2A receptor.
Test [7] addresses T4, Alpha-2A adrenergic receptor (Homo sapiens, UniProt P08913).
T4 sequence (P08913 whole entry): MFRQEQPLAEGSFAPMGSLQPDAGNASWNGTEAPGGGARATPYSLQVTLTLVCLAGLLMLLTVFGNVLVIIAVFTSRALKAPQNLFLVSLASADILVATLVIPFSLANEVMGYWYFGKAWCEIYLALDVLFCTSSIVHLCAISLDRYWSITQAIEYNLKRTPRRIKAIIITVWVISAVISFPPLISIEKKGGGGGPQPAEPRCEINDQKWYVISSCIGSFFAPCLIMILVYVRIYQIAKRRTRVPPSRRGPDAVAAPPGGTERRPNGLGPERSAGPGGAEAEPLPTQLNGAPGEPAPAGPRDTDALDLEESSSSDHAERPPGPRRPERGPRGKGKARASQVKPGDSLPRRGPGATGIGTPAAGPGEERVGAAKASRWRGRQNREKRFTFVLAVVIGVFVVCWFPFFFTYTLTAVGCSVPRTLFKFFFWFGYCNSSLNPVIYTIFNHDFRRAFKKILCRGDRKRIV
The experiment in a line: Binding affinity against Alpha-2A adrenergic receptor.

In test [8] the target is T5, 5-hydroxytryptamine receptor 2C (Homo sapiens, UniProt P28335).
T5 sequence (P28335 whole entry): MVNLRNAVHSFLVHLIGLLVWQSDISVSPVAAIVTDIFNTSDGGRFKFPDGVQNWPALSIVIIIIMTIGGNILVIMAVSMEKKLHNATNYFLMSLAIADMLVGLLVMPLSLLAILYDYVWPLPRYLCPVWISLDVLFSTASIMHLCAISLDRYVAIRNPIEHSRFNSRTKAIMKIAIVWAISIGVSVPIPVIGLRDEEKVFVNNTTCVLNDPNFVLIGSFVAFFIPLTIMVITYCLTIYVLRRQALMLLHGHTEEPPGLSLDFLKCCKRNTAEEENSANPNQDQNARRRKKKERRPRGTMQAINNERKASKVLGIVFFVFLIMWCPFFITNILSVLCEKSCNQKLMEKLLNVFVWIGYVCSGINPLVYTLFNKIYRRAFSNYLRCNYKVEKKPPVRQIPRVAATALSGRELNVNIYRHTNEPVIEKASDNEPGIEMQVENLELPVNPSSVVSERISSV
As to the kind of experiment: Binding affinity against 5-hydroxytryptamine 2C receptor.

Test [9] concerns the target T6, 5-hydroxytryptamine receptor 1A (Mus musculus, UniProt Q64264).
T6 sequence (Q64264 whole entry): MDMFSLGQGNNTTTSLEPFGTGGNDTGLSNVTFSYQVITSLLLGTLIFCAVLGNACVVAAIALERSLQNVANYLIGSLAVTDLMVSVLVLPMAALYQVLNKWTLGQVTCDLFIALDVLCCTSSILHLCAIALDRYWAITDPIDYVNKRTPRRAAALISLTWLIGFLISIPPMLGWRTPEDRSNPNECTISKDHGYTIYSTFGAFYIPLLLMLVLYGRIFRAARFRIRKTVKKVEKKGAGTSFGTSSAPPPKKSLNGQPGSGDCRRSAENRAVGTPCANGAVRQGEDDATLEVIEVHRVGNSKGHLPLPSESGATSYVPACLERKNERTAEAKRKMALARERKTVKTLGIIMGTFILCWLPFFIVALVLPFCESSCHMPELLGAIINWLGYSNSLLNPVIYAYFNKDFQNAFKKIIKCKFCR
The experiment in a line: Binding affinity against 5-hydroxytryptamine 1A receptor.

The species entered for test [10] is Rattus norvegicus. The experiment in a line: Tested for effective concentration against 5-HT mediated depolarization of isolated rat vagus nerve. The format is functional.
The target of test [11] is T3, 5-hydroxytryptamine receptor 4. The experiment in a line: Binding affinity against 5-Hydroxytryptamine 4 receptor.
The species named for test [12] is Rattus norvegicus. As to the kind of experiment: Tested for maximum response in depolarization of isolated rat vagus nerve measured at dose 10 uM. In kind it is functional.

SMILES strings stand for the structures. pEC50, pKi: −log10 of the molar value.

T3 sequence (Q13639 whole entry): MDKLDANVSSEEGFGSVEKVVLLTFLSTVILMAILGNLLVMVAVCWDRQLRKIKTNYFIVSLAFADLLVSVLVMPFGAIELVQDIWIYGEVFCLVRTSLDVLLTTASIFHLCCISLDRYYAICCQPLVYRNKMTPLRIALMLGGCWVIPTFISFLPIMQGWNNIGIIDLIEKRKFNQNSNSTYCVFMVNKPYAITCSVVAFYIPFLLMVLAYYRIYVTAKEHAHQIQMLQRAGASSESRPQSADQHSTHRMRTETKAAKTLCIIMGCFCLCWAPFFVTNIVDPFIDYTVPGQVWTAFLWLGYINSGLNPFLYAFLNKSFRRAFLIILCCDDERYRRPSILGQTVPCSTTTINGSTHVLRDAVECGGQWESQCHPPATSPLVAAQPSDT
Beta-1 adrenergic receptor, sequence (P08588 whole entry): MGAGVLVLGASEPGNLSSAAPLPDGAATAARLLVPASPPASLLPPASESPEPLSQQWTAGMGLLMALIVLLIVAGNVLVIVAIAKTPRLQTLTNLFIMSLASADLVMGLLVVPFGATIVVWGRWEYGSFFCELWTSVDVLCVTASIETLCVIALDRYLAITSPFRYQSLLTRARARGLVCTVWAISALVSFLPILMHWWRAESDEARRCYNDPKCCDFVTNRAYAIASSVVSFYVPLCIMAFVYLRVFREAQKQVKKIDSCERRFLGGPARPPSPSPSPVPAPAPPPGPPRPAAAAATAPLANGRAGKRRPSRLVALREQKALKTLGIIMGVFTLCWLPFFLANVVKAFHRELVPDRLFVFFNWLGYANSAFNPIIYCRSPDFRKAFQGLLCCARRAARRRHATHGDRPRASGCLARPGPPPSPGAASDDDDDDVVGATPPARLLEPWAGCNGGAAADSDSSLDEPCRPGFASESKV
5-hydroxytryptamine receptor 2A, sequence (P28223 whole entry): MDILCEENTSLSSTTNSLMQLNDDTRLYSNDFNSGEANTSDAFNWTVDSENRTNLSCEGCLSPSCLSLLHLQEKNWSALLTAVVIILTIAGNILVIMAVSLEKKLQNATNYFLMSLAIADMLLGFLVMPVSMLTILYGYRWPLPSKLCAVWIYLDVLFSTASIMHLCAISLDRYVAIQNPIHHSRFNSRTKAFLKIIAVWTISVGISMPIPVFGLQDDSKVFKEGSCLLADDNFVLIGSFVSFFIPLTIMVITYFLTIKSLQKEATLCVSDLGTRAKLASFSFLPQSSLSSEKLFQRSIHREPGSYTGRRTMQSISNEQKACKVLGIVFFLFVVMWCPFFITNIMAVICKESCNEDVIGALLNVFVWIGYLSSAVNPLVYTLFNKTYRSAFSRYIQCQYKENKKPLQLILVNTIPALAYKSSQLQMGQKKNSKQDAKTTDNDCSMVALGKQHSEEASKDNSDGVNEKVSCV

The term pKi denotes the negative decadic logarithm of the Ki, by convention in mol/L. The low end stands for a large Ki, the high end for a small Ki. For orientation: pEC50 means −log10 of the EC50, conventionally taken in molar units. As for `Cn1cc(C(=O)C(=O)N[C@H]2CN3CCC2CC3)c2ccccc21`, the pKi was 5.50 in test [1]; below 5.00 in test [2]; 6.60 in test [4]; below 5.00 in [5]; 4.90 in test [6]; 5.10 in test [7]. Moreover, the pKi in test [8] is 4.80; in test [9] it was below 4.00. The compound further registered a Max response in the test listed under Rattus norvegicus [3] of 140 uV. In the test listed under Rattus norvegicus [10], this compound showed a pEC50 of 7.45.
Take `Cn1cc(C(=O)C(=O)N[C@@H]2CN3CCC2CC3)c2ccccc21`: the negative-log Ki (pKi) in test [1] is 4.60; in test [2] it was 4.80; in [5], below 4.00; in [6], 4.60; in test [7] it was 4.50; in test [8], 4.90. Further, the pKi in test [11] was 6.40; in [9], below 4.00. The Max response in the test listed under Rattus norvegicus [12] is reported as 167 uV. Further, in the test filed under Rattus norvegicus [10], the negative logarithm of the EC50 (pEC50) is 5.67.

For the origin of these results see ChEMBL document CHEMBL1128795, “N-(Quinuclidin-3-yl)-2-(1-methyl-1H-indol-3-yl)-2-oxo-acetamide: a high affinity 5-HT3 receptor partial agonist” (Bioorg Med Chem Lett, 1995).
